# Source: patent US20240308992A1 (Biopolar Youtang(Guangdong) Pharmaceutical Co., Ltd., priority 2021, published 2024)
# Target: T1, Drak2 (Homo sapiens, UniProt O94768)
# T1 sequence (O94768 1-372): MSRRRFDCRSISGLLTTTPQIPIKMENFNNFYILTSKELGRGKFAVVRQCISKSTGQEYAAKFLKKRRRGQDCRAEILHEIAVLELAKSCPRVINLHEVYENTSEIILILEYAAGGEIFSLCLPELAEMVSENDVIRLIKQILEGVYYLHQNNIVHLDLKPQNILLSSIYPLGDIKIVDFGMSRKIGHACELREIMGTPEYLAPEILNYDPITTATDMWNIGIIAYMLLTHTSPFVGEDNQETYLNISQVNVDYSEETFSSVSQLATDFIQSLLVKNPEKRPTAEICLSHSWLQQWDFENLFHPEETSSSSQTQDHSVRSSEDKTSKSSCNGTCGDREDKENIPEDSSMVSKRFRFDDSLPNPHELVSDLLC
# Test: Drak2 activity test, ADP-Glo kinase assay (Promega)
# Type: biochemical
# Details: inhibition of Drak2 kinase activity, 2 h room temperature, activity range classes, read-out: IC50_Drak2
row,IC50 [nM],SMILES
1,11 to 100,"COc1cc(-c2cncc(-c3cc(NC(=O)CC4CC(C(C)(F)F)C4)cs3)n2)ccc1C(=O)N(C)C1CCN(C)CC1 (stereo not drawn) [Example B92, 4-(6-(4-(2-(3-(1,1-difluoroethyl)cyclobutyl)acetamido)thiophen-2-yl)pyrazin-2-yl)-2-methoxy-N-methyl-N-(1-methylpiperidin-4-yl)benzamide]"
2,11 to 100,"COc1cc(-c2cncc(-c3cc(NC(=O)CC4CCC4)cs3)n2)ccc1C(=O)N(C)C1CC2(C1)CN(C)C2 [Example B93, 4-(6-(4-(2-cyclobutylacetamido)thiophen-2-yl)pyrazin-2-yl)-2-methoxy-N-methyl-N-(2-methyl-2-azaspiro[3.3]heptan-6-yl)benzamide]"
3,101 to 1000,"COc1cc(-c2cncc(-c3cc(NC(=O)CC4(N)CCC4)cs3)n2)ccc1C(=O)N(C)C1CCN(C)CC1 [Example B94, 4-(6-(4-(2-(1-aminocyclobutyl)acetamido)thiophen-2-yl)pyrazin-2-yl)-2-methoxy-N-methyl-N-(1-methylpiperidin-4-yl)benzamide]"
4,11 to 100,"COc1cc(-c2cncc(-c3cc(NC(=O)C(C)C4CCC4)cs3)n2)ccc1C(=O)N(C)C1CCN(C)CC1 (stereo not drawn) [Example B95, 4-(6-(4-(2-cyclobutylpropanamido)thiophen-2-yl)pyrazin-2-yl)-2-methoxy-N-methyl-N-(1-methylpiperidin-4-yl)benzamide]"
5,11 to 100,"COc1cc(-c2cncc(-c3cc(NC(=O)CC4CCC4)cs3)n2)ccc1C(=O)N(C)C1CCN(C2CC2)CC1 [Example B96, 4-(6-(4-(2-cyclobutylacetamido)thiophen-2-yl)pyrazin-2-yl)-N-(1-cyclopropylpiperidin-4-yl)-2-methoxy-N-methylbenzamide]"
6,11 to 100,"COc1cc(-c2cncc(-c3cc(NC(=O)CC4CCC4)cs3)n2)ccc1C(=O)N(C)C1CC2(C1)CN(C1CC1)C2 [Example B97, 4-(6-(4-(2-cyclobutylacetamido)thiophen-2-yl)pyrazin-2-yl)-N-(2-cyclopropyl-2-azaspiro[3.3]heptan-6-yl)-2-methoxy-N-methylbenzamide]"
7,< 10,"COc1cc(-c2cncc(-c3cc(NC(=O)CC4CCC4)cs3)n2)ccc1C(=O)NO [Example B98, 4-(6-(4-(2-cyclobutylacetamido)thiophen-2-yl)pyrazin-2-yl)-N-hydroxy-2-methoxybenzamide]"
8,< 10,"COc1cc(-c2cncc(-c3cc(NC(=O)CC4CC(F)C4)cs3)n2)ccc1C(=O)N(C)C1CC2(C1)CN(C)C2 (stereo not drawn) [Example B99, 4-(6-(4-(2-(3-fluorocyclobutyl)acetamido)thiophen-2-yl)pyrazin-2-yl)-2-methoxy-N-methyl-N-(2-methyl-2-azaspiro[3.3]heptan-6-yl)benzamide]"
9,11 to 100,"COc1cc(-c2cncc(-c3cc(NC(=O)C(C)(C)C4CCC4)cs3)n2)ccc1C(=O)N(C)C1CCN(C)CC1 [Example B100, 4-(6-(4-(2-cyclobutyl-2-methylpropanamido)thiophen-2-yl)pyrazin-2-yl)-2-methoxy-N-methyl-N-(1-methylpiperidin-4-yl)benzamide]"
10,11 to 100,"COc1cc(-c2cncc(-c3cc(NC(=O)CC4CCC4)cs3)n2)ccc1S(=O)(=O)N(C)CCN(C)C [Example B101, 2-cyclobutyl-N-(5-(6-(4-(N-(2-(dimethylamino)ethyl)-N-methylsulfamoyl)-3-methoxyphenyl)pyrazin-2-yl)thiophen-3-yl)acetamide]"
11,11 to 100,"COc1cc(-c2cncc(-c3cc(NC(=O)CC4CC4)cs3)n2)ccc1S(=O)(=O)N(C)CCN(C)C [Example B102, 2-cyclopropyl-N-(5-(6-(4-(N-(2-(dimethylamino)ethyl)-N-methylsulfamoyl)-3-methoxyphenyl)pyrazin-2-yl)thiophen-3-yl)acetamide]"
12,11 to 100,"COc1cc(-c2cncc(-c3cc(NC(=O)CC4CC4)cs3)n2)ccc1S(=O)(=O)N(C)C1CCN(C)CC1 [Example B103, 2-cyclopropyl-N-(5-(6-(3-methoxy-4-(N-methyl-N-(1-methylpiperidin-4-yl)sulfamoyl)phenyl)pyrazin-2-yl)thiophen-3-yl)acetamide]"
13,11 to 100,"COc1cc(-c2cncc(-c3cc(NC(=O)CC4CCC4)cs3)n2)ccc1S(=O)(=O)N(C)C1CCN(C)CC1 [Example B104, 2-cyclobutyl-N-(5-(6-(3-methoxy-4-(N-methyl-N-(1-methylpiperidin-4-yl)sulfamoyl)phenyl)pyrazin-2-yl)thiophen-3-yl)acetamide]"
14,11 to 100,"COc1cc(-c2cncc(-c3cc(NC(=O)CC4CCC4)cs3)n2)ccc1S(=O)(=O)N1CCOCC1 [Example B105, 2-cyclobutyl-N-(5-(6-(3-methoxy-4-(morpholinosulfonyl)phenyl)pyrazin-2-yl)thiophen-3-yl)acetamide]"
15,> 10000,"COc1ccc(-c2cncc(-c3cc(NC(=O)C4CCC4)cs3)c2C(N)=O)cc1OC [Example C1, 3-(4-(cyclobutanecarboxamido)thiophen-2-yl)-5-(3,4-dimethoxyphenyl)isonicotinamide]"
16,1000 to 10000,"COc1ccc(-c2cncc(-c3cc(NC(=O)C4CCC4)cs3)c2C#N)cc1OC [Example C2, N-(5-(4-cyano-5-(3,4-dimethoxyphenyl)pyridin-3-yl)thiophen-3-yl)cyclobutanecarboxamide]"
17,1000 to 10000,"CCCCC(=O)Nc1csc(-c2cncc(-c3ccc(OC)c(OC)c3)c2C(N)=O)c1 [Example C3, 3-(3,4-dimethoxyphenyl)-5-(4-pentanamidothiophen-2-yl)isonicotinamide]"
18,1000 to 10000,"CCCCC(=O)Nc1csc(-c2cncc(-c3ccc(OC)c(OC)c3)c2C#N)c1 [Example C4, N-(5-(4-cyano-5-(3,4-dimethoxyphenyl)pyridin-3-yl)thiophen-3-yl)pentanamide]"
19,> 10000,"COc1ccc(-c2cncc(NC3CCC(N)CC3)n2)cc1OC (stereo not drawn) [Example D1, N^1-(6-(3,4-dimethoxyphenyl)pyrazin-2-yl)cyclohexane-1,4-diamine]"
20,> 10000,"COc1ccc(-c2cncc(NC3CCC(NC(=O)C4CCC4)CC3)n2)cc1OC (stereo not drawn) [Example D2, N-(4-((6-(3,4-dimethoxyphenyl)pyrazin-2-yl)amino)cyclohexyl)cyclobutanecarboxamide]"
21,> 10000,"COc1ccc(-c2cncc(-c3nc(NC(=O)OC(C)(C)C)cs3)n2)cc1OC [Example D3, tert-butyl (2-(6-(3,4-dimethoxyphenyl)pyrazin-2-yl)thiazol-4-yl)carbamate]"
22,1000 to 10000,"CCN(CC)C(=O)Nc1csc(-c2cncc(-c3ccc(OC)c(OC)c3)n2)n1 [Example D4, 3-(2-(6-(3,4-dimethoxyphenyl)pyrazin-2-yl)thiazol-4-yl)-1,1-diethylurea]"
23,1000 to 10000,"CCCCC(=O)Nc1csc(-c2ccnc(-c3ccc(C(=O)N(C)C4CCN(C)CC4)c(OC)c3)n2)c1 [Example D5, 2-methoxy-N-methyl-N-(1-methylpiperidin-4-yl)-4-(4-(4-pentanamidothiophen-2-yl)pyrimidin-2-yl)benzamide]"
24,101 to 1000,"CCCCC(=O)Nc1csc(-c2cncc(N3CCN(S(C)(=O)=O)CC3)n2)c1 [Example D6, N-(5-(6-(4-(methylsulfonyl)piperazin-1-yl)pyrazin-2-yl)thiophen-3-yl)pentanamide]"
25,1000 to 10000,"CCCCC(=O)Nc1csc(-c2cncc(C3CCN(S(C)(=O)=O)CC3)n2)c1 [Example D7, N-(5-(6-(1-(methylsulfonyl)piperidin-4-yl)pyrazin-2-yl)thiophen-3-yl)pentanamide]"
26,1000 to 10000,"CCCCC(=O)Nc1csc(-c2cncc(C3=CCN(S(C)(=O)=O)CC3)n2)c1 [Example D8, N-(5-(6-(1-(methylsulfonyl)-1,2,3,6-tetrahydropyridin-4-yl)pyrazin-2-yl)thiophen-3-yl)pentanamide]"
27,11 to 100,"CN1CCC(C(=O)N2CCOc3cc(-c4cncc(-c5cc(NC(=O)CC6CCC6)cs5)n4)ccc32)CC1 [Example E1, 2-cyclobutyl-N-(5-(6-(4-(1-methylpiperidine-4-carbonyl)-3,4-dihydro-2H-benzo[b][1,4]oxazin-7-yl)pyrazin-2-yl)thiophen-3-yl)acetamide]"
28,11 to 100,"CN1CCC(C(=O)N2CCOc3cc(-c4cncc(-c5cc(NC(=O)CC6CC6)cs5)n4)ccc32)CC1 [Example E2, 2-cyclopropyl-N-(5-(6-(4-(1-methylpiperidin-4-carbonyl)-3,4-dihydro-2H-benzo[b][1,4]oxazin-7-yl)pyrazine-2-yl)thiophene-3-yl) acetamide]"
29,11 to 100,"COc1cc(-c2cncc(-c3cc(NC(=O)NC4CCC4)cs3)n2)ccc1C(=O)N(C)C1CCN(C)CC1 [Example F1, 4-(6-(4-(3-cyclobutylurea)thiophen-2-yl)pyrazin-2-yl)-2-methoxy-N-methyl-N-(1-methylpiperidin-4-yl) benzamide]"

row,SMILES,IC50 [nM]
1,"COc1cc(-c2cncc(-c3cc(OCC[C@H](C)CN)cs3)n2)ccc1C(=O)N(C)C1CCN(C)CC1 [Example G1, (S)-4-(6-(4-(4-amino-3-methylbutoxy)thiophen-2-yl)pyrazin-2-yl)-2-methoxy-N-methyl-N-(1-methylpiperidin-4-yl) benzamide]",101 to 1000
